According to patent US11059795B2, “Androgen receptor modulators and methods for their use” (ESSA Pharma, Inc., priority 2018, dated 2021):

Tests used:
[1] = Hepatocyte stability assay, mouse hepatocytes; type: in vitro ADME; settings: cryopreserved hepatocytes; for hepatocyte CLint at 1 μM: mouse, 1 μM compound, 0.5 million cells/mL, 37° C., read-out: MH +/− NADPH: Clint (μL/min/million cells); for half-life at 1 μM: read-out: Hepatocytes T½ (min) Mouse
Summary of the method: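 Cryopreserved rat, human or mouse hepatocytes at 0.5 million cells/mL in DMEM with 1 μM compound, 37° C, sampled at 0, 60, 120 and 180 min and quenched with acetonitrile/formic acid. Parent loss vs 0-min by LC/MS/MS gave t½, and Clint = 0.693/t½ × mL incubation/million cells.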

[2] = target: T1, LBD of glucocorticoid receptor (GR) fused to DBD of GAL4 (Homo sapiens, UniProt P04150); experiment: LBD-expressing reporter assay (GeneBLAzer), GR LBD; type: cell-based; settings: inhibition of maximal activity attained with agonist; read-out: Steroid Receptor LBD IC50 (μM) GR
T1 sequence (P04150 524-758 limits assumed): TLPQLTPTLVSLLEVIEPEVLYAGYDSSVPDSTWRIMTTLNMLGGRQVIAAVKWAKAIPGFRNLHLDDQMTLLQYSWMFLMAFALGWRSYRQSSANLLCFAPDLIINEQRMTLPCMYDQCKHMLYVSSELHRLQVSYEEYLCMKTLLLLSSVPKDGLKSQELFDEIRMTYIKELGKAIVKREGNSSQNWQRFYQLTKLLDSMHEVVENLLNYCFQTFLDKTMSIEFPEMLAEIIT
Text: (§1) This assay uses cells that stably express a chimera fusion protein comprising the LBD of a steroid hormone receptor fused to the DNA-binding domain (DBD) of GAL4 along with beta-lactamase reporter under transcriptional control of an upstream activator sequence (UAS). When agonist binds to the LBD of the GAL4 (DBD)-steroid hormone (LBD) chimera fusion protein, the protein binds to the UAS, resulting in expression of beta-lactamase. LBDs of androgen receptor (AR), progesterone receptor-beta (PRβ), glucocorticoid receptor (GR), estrogen receptor-α (ERα), and estrogen receptor-β (ERβ) were tested and IC50s calculated for inhibiting maximal activity attained with agonist.

[3] = Microsomal stability assay, monkey liver microsomes; type: in vitro ADME; settings: pH 7.4, read-out: Liver microsome T½ (min) Monkey
Description: Microsomal stability assay is a widely used in vitro model to characterize the metabolic conversion by phase I enzymes, such as cytochrome P450 (CYP) enzymes. Since metabolism is known to be highly variable in different species, microsomal stability assay is commonly run in multiple species. Metabolic stability of testing compound can be evaluated using human, rat, mouse, or other animal liver or intestine microsomes to predict intrinsic clearance.
The assay was carried out in 96-well microtiter plates at 37° C. Reaction mixtures (25 μL) contained a final concentration of 1 μM test compound, 0.5 mg/mL liver microsomes protein, and 1 mM NADPH and/or 1 mM UDPGA (with alamethicin) in 100 mM potassium phosphate, pH 7.4 buffer with 3 mM MgCl2. The incubation was done with N=1, but duplicate incubation at each time point can be prepared if necessary. At each of the time points (for example, 0, 15, 30, and 60 minutes), 150 μL of quench solution (100% acetonitrile with 0.1% formic acid) with internal standard was transferred to each well. Besides the zero minute controls, mixtures containing the same components except the NADPH can also be prepared as the negative control. Verapamil was included as a positive control to verify assay performance. Plates were sealed, vortexed, and centrifuged at 4° C. for 15 minutes at 4000 rpm. The supernatant is transferred to fresh plates for LC/MS/MS analysis.
Summarized conditions: [Compound]=[…], [LM]=0.5 mg/mL, [NADPH]=1 mM and/or [UDPGA]=1 mM, Buffer=100 mM Potassium Phosphate, pH 7.4 with 3 mM MgCl2, Time=0, 15, 30, and 60 min, and Temperature=37° C.
(§2) All samples were analyzed on LC/MS/MS using an AB Sciex API 4000 instrument, coupled to a Shimadzu LC-20AD LC Pump system. Analytical samples were separated using a Waters Atlantis T3 dC18 reverse phase HPLC column (20 mm×2.1 mm) at a flow rate of 0.5 mL/min. The mobile phase consisted of 0.1% formic acid in water (solvent A) and 0.1% formic acid in 100% acetonitrile (solvent B).
The extent of metabolism is calculated as the disappearance of the test compound, compared to the 0-min time incubation. Initial rates are calculated for the compound concentration and used to determine half-life (t½) values and subsequently, the intrinsic clearance (Clint). Clint=(0.693)(1/t½ (min))(g of liver/kg of body weight)(mL incubation/mg of microsomal protein)(45 mg of microsomal protein/g of liver weight)

[4] = Hepatocyte stability assay, human hepatocytes; type: in vitro ADME; settings: cryopreserved hepatocytes, read-out: Hepatocytes T½ (min) Human
Text: The […] of in vitro intrinsic clearance (Clint) for drug candidates in the early discovery stage is common practice in the pharmaceutical industry. The Clint values of drug candidates can help to confirm whether metabolism is the main clearance pathway when it is compared with the total body clearance in vivo. Hepatocytes are among the routinely used in vitro systems for measuring clearance. Hepatocytes have been reported to retain most of the phase I and phase II metabolic activities, and therefore, it is a useful tool to estimate the intrinsic clearance for potential drug candidates.
Metabolic stability of testing compound were be evaluated using human and mouse hepatocytes and can also be use rat, mouse, or other animal hepatocytes to predict intrinsic clearance. Cryopreserved hepatocytes were removed from the liquid nitrogen tank and thawed in a 37° C. water bath. As soon as the cells pulled away from the vial wall, they were decanted into 48 ml of warm HT medium. Cells were centrifuged for four minutes at 420 rpm (50 g). After removing the supernatant, pellet was re-suspended in warm DMEM medium. Cell density was counted by a hemacytometer.
The assay was carried out in 96-well microtiter plates. Compounds were incubated for 0, 60, 120, and 180 minutes at 37° C. with hepatocytes. Reaction mixtures (50 μL) contained a final concentration of 1 μM test compound, 0.5 million cells/mL hepatocytes in the DMEM medium. At each of the time points (for example, 0, 1, 2, and 3 hours), 200 μL of quench solution (100% acetonitrile with 0.1% formic acid) with internal standard was transferred to each well. Midazolam was included as a positive control to verify assay performance. Plates were sealed and centrifuged at 4° C. for 15 minutes at 4000 rpm. The supernatant is transferred to fresh plates for LC/MS/MS analysis.
Summarized conditions (customizable): [Compound]=[…], Positive control: midazolam and/or naloxone, [Hepatocyte]=0.5 million cells/Ml, time=0, 60, 120, and 180 min, t=37° C.
as §2
The extent of metabolism was calculated as the disappearance of the test compound, compared to the 0-min control reaction incubations. Initial rates were calculated for the compound concentration and used to determine t½ values and subsequently, the intrinsic clearance, Clint. Clint=(0.693)(1/t½(min))(mL incubation/million cells)

[5] = target: T2, LBD of androgen receptor (AR) fused to DBD of GAL4 (Homo sapiens, UniProt P10275); experiment: LBD-expressing reporter assay (GeneBLAzer), AR LBD; type: cell-based; settings: inhibition of maximal activity attained with agonist; read-out: Steroid Receptor LBD IC50 (μM) AR
T2 sequence (P10275 669-900 limits assumed): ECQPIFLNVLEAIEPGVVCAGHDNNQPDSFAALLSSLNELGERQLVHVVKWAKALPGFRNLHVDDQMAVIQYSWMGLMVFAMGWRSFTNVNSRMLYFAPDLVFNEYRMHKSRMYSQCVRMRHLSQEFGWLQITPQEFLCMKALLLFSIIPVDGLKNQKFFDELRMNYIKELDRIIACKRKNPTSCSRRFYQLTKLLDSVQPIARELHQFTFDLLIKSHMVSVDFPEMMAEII
Text: as §1

**Q.** With `C[C@H](Oc1ccc(C(C)(C)c2cc(Cl)c(OCCCl)c(C#N)c2)cc1)c1ccnc(NS(C)(=O)=O)n1` (single isomer, unassigned) [Compound A170] as the compound, how does the hepatocyte CLint at 1 μM [1] read?
**A.** < 4 µL/min/1e6 cells

**Q.** Which half-life at 1 μM [1] does the source give for `CC(C)(c1ccc(OCc2ocnc2S(C)(=O)=O)cc1)c1cc(Cl)c(OCCCl)c(Cl)c1` [Compound A13, 5-((4-(2-(3,5-dichloro-4-(2-chloroethoxy)phenyl)propan-2-yl)phenoxy)methyl)-4-(methylsulfonyl)oxazole] here?
**A.** 203 min

**Q.** And the hepatocyte CLint at 1 μM [1]?
**A.** 4 to 18 µL/min/1e6 cells

**Q.** What about the IC50 [2] of the same compound?
**A.** > 10 µM

**Q.** What about the half-life at 1 μM [3] of the same compound?
**A.** > 120 min

**Q.** What about the half-life at 1 μM [4] of the same compound?
**A.** 290 min

**Q.** What about the IC50 [5] of the same compound?
**A.** > 10 µM

**Q.** Which results are given for `CC(C)(c1ccc(OCc2ocnc2S(C)(=O)=O)cc1)c1cc(Cl)c(OCCCl)c(C#N)c1` [Compound A28, 3-chloro-2-(2-chloroethoxy)-5-(2-(4-((4-(methylsulfonyl)oxazol-5-yl)methoxy)phenyl)propan-2-yl)benzonitrile]?
**A.** half-life at 1 μM [1]: 86 min; hepatocyte CLint at 1 μM [1]: 4 to 18 µL/min/1e6 cells; IC50 [2]: > 10 µM; half-life at 1 μM [3]: 73 min; half-life at 1 μM [4]: > 360 min; IC50 [5]: > 10 µM

**Q.** What does the source list for `CC(C)(c1ccc(OCc2coc(NS(C)(=O)=O)n2)cc1)c1cc(Cl)c(OCCCl)c(Cl)c1` [Compound A38, N-(4-((4-(2-(3,5-dichloro-4-(2-chloroethoxy)phenyl)propan-2-yl)phenoxy)methyl)oxazol-2-yl)methanesulfonamide]?
**A.** half-life at 1 μM [1]: > 360 min; hepatocyte CLint at 1 μM [1]: < 4 µL/min/1e6 cells; IC50 [2]: > 10 µM; half-life at 1 μM [3]: > 120 min; half-life at 1 μM [4]: > 360 min; IC50 [5]: > 10 µM

**Q.** Which results are given for `CC(C)(c1ccc(OCc2ccnc(NS(C)(=O)=O)n2)cc1)c1cc(Cl)c(OCCCl)c(Cl)c1` [Compound A74, N-(4-((4-(2-(3,5-dichloro-4-(2-chloroethoxy)phenyl)propan-2-yl)phenoxy)methyl)pyrimidin-2-yl)methanesulfonamide]?
**A.** IC50 [2]: 9.51 µM; half-life at 1 μM [3]: > 120 min; half-life at 1 μM [4]: > 360 min; IC50 [5]: > 10 µM

**Q.** Which results are given for `CC(C)(c1ccc(OCc2ncc(S(C)(=O)=O)s2)cc1)c1cc(Cl)c(OCCCl)c(C#N)c1` [Compound A93, 3-chloro-2-(2-chloroethoxy)-5-(2-(4-((5-(methylsulfonyl)thiazol-2-yl)methoxy)phenyl)propan-2-yl)benzonitrile]?
**A.** half-life at 1 μM [1]: > 360 min; hepatocyte CLint at 1 μM [1]: < 4 µL/min/1e6 cells; IC50 [2]: > 10 µM; half-life at 1 μM [3]: 101 min; half-life at 1 μM [4]: > 360 min; IC50 [5]: > 10 µM

**Q.** Which results are given for `CC(C)(c1ccc(OCc2ccnc(NS(C)(=O)=O)n2)cc1)c1cc(Cl)c(OCCCl)c(C#N)c1` [Compound A109, N-(4-((4-(2-(3-chloro-4-(2-chloroethoxy)-5-cyanophenyl)propan-2-yl)phenoxy)methyl)pyrimidin-2-yl)methanesulfonamide]?
**A.** half-life at 1 μM [1]: > 360 min; hepatocyte CLint at 1 μM [1]: < 4 µL/min/1e6 cells; IC50 [2]: > 10 µM; half-life at 1 μM [3]: > 120 min; half-life at 1 μM [4]: > 360 min; IC50 [5]: > 10 µM

**Q.** With `Cc1cnc(NS(C)(=O)=O)nc1COc1ccc(C(C)(C)c2cc(Cl)c(OCCCl)c(C#N)c2)cc1` [Compound A122, N-(4-((4-(2-(3-Chloro-4-(2-chloroethoxy)-5-cyanophenyl)propan-2-yl)phenoxy)methyl)-5-methylpyrimidin-2-yl)methanesulfonamide] as the compound, how does the hepatocyte CLint at 1 μM [1] read?
**A.** 4 to 18 µL/min/1e6 cells

**Q.** Which hepatocyte CLint at 1 μM [1] does the source give for `CCS(=O)(=O)Nc1nc(COc2ccc(C(C)(C)c3cc(Cl)c(OCCCl)c(C#N)c3)cc2)co1` [Compound A126] here?
**A.** < 4 µL/min/1e6 cells

**Q.** Which hepatocyte CLint at 1 μM [1] does the source give for `CCS(=O)(=O)Nc1nccc(COc2ccc(C(C)(C)c3cc(Cl)c(OCCCl)c(C#N)c3)cc2)n1` [Compound A131] here?
**A.** < 4 µL/min/1e6 cells

**Q.** Which hepatocyte CLint at 1 μM [1] does the source give for `CC(C)(c1ccc(OCc2nc(S(C)(=O)=O)cs2)cc1)c1cc(Cl)c(OCCCl)c(C#N)c1` [Compound A136, 3-Chloro-2-(2-chloroethoxy)-5-(2-(4-((4-(methylsulfonyl)thiazol-2-yl)methoxy)phenyl)propan-2-yl)benzonitrile] here?
**A.** 4 to 18 µL/min/1e6 cells

**Q.** With `CC(C)(c1ccc(OC[C@H](O)CNS(C)(=O)=O)cc1)c1cc(Cl)c(OC[C@H](O)CCl)c(Cl)c1` [X, reference compound] as the compound, how does the half-life at 1 μM [1] read?
**A.** 33 min

**Q.** What about the IC50 [2] of the same compound?
**A.** > 10 µM

**Q.** What about the half-life at 1 μM [4] of the same compound?
**A.** > 360 min

**Q.** What about the IC50 [5] of the same compound?
**A.** 9.83 µM
